Source: patent US20200061076A1, “METHODS OF TREATING LEUKODYSTROPHIES” (Ramot at Tel-Aviv University Ltd., priority 2017, published 2020)

Columns and labels:
[1] = test system: Mut MEFs; test: Cell survival assay, Crystal violet staining, Mut MEFs; format: cell-based, mouse; details: for Survival (%) ± SEM Mut MEFs: 24 hours, untreated cells set to 100%
Procedure: Cells were seeded on 96-wells plate at a density of 5000 cells per well. Astrocytes were seeded following coating with 0.001% PDL.

[2] = test system: Mut MEFs; test: Survival under Tunicamycin-induced ER stress, Crystal Violet, MEFs; details: Mut MEFs, 30 μM, 50 ng/ml Tunicamycin 22 hours (FIG. 20B)
Procedure: Mut MEFs were treated or not for 24 hours with the indicated concentrations of the indicated Sig-1R binders in the presence of 0.1 μg/ml Tunicamycin (Tun) during the last 22 hours. Following, the cells were washed, fixated and stained with Crystal Violet (CV) followed by measurement of absorbance at 570 nm. Shown is average % of CV staining relative to cells not treated with tunicamycin nor Sig-1R binder ±SEM of 3 independent experiments. *p<0.03.
Following, the cells were washed, fixated and stained with Crystal Violet and absorbance at 570 nm was measured. Data is presented relative to cells of the corresponding genotype not treated with p8G5 nor Tunicamycin. Shown is average % of CV staining ±SEM of 3 independent experiments.
Mut MEFs were treated or not for 24 hours with 10, 20 or 30 μM of the indicated Sig-1R binders in the presence of 50 ng/ml Tunicamycin (Tun) during the last 22 hours. Following, the cells were washed, fixated and stained with Crystal Violet (CV) followed by measurement of absorbance at 570 nm. Shown is % of CV staining relative to cells not treated with tunicamycin nor Sig-1R binder ±SEM of 3 independent experiments, *p<0.05.
Mut MEFs were incubated or not with the indicated concentrations of the indicated compounds for 2 hours followed by addition of 50 ng/ml Tunicamycin (Tun) for additional 22 hours, stained with Crystal Violet followed by measurement of absorbance at 570 nm. Shown is average normalized to Tun-treated cells without any compound ±SEM of 3 independent experiments. * not significant; ** p<0.02; *** all values p<0.04.

[3] = test system: Mut MEFs; test: JC1 staining of intact and damaged mitochondria (mitochondrial membrane potential); format: cell-based, mouse; details: Mut MEFs, 10 μM, 24 hours (FIG. 20A)
Procedure: Mut MEFs were treated or not for 6 hours with the indicated concentrations of p8G5 (blue), pre084 (purple), or NE-100 (yellow), washed and stained with Hoechst and JC1 for 30 minutes followed by image acquisition using In-Cell-Analyzer-2000. Shown is the % of red/green JC1 integrated intensity per cell relative to that in untreated WT cells of 2-4 independent experiments.
Following, the cells were washed, stained with Hoechst and JC-1 fluorescent dyes for 30 minutes, and subjected to image acquisition using In-Cell-Analyzer-2000. Shown is cellular content of damaged mitochondria (JC1 green channel, red bars), intact mitochondria (JC1 red channel, green bars) and damaged to intact mitochondria ratio (blue bars). Values of control (vehicle treated) cells was set to 100%.
Mut MEFs were treated with the indicated compounds at 10 μM for 24 hours followed by staining with fluorogenic dyes and image-based single-cell analysis. Shown is average effect on ROS level from at least 3-independent experiments ±SEM. […] Mut MEFs were incubated or not for 24 hours with 10 μM of the indicated compound, washed and stained with Crystal Violet. […] Mut MEFs were incubated or not for 24 hours with 10 μM of the indicated compound, washed and stained with JC1 and Hoechst followed by image-based single-cell analysis. Values of untreated cells were set as 100%. Shown is average of at least 3 independent experiments for each parameter compared to its matching control ±SEM. * p<0.05. Putative targets are indicated.
Mut MEFs were incubated or not for 24 hours with 10 μM of the indicated compounds, washed and stained with Hoechst and JC1 followed by image-based single-cell analysis. […] Mut MEFs were incubated or not with the indicated concentrations of the indicated compounds for 2 hours followed by addition of 50 ng/ml Tunicamycin (Tun) for additional 22 hours, stained with Crystal Violet followed by measurement of absorbance at 570 nm.
MEFs were seeded on 1% gelatin-coated 96-wells plate at a density of 5000 cells per well. 24 hours post-plating the cells were incubated with the tested compounds for additional 24 hours. Several DMSO-treated cells (control) were included in each plate at different locations. Following, the cells were stained by addition of fluorogenic dyes for further 30 minutes incubation at 37° C. […] CellROX was used together with Hoechst and CFSE; JC1 was used together with Hoechst. Cells were washed with Hank's balanced salt solution (HBSS) which was used for images acquisition using IN Cell Analyzer 2000 (GE Healthcare, Pitsburgh, Pa., USA). IN Cell Developer Toolbox 1.9.1 software (GE Healthcare) was used for analysis which included cells segmentation using Hoechst and/or CFSE signals. For analysis of JC1 staining, integrated intensity of green and red emissions were used for detection of damaged and intact mitochondria, respectively.

[4] = test system: Hedgehog signaling pathway; test: Luciferase activity assay in Shh-LIGHT2 cells (Gli1-controlled Firefly / constitutive Renilla); format: cell-based
Procedure: Following lysis, luminescence was measured using the Dual Luciferase assay kit (Promega) followed by Firefly/Renilla luciferase ratio calculation for each treatment. Shown is average Firefly/Renilla luciferase activity ±SD of 3 independent experiments. *p<0.04. […] RNA was extracted from brains of P18 and P21 Mut and WT mice. cDNA was prepared by reverse transcription and subjected to qPCR using primers specific to Gli1 and GAPDH (SEQ ID NOs: 1-2 and 3-4, respectively). Relative quantity (RQ) was calculated by the ΔΔCt method. * p<0.02 [vs control (FIG. 11A) or vs SAG treated cells (FIG. 11B)].
Shh-LIGHT2 cells were seeded at a density of 10,000 cells per well in a 96-wells plate in growing medium. 24 hours post-plating the cells were incubated for additional 24 hours with the tested compounds in low serum media (0.5%) without G418 and Zeocin. Following lysis, Firefly and Renilla luminescence was measured using the Dual Luciferase assay kit (Promega) and a Veritas microplate luminometer (Turner Biosystems).
To test if p8C10 (H5), p8G7 (H9) and p9E6 (H15) compounds that were identified in the screen indeed affect Hedgehog signaling, SHH-lightII cells which stably express an inducible Firefly-Luciferase reporter gene under the control of Gli1 (a read-out of Hedgehog activation) and constitutive Renilla-Luciferase for normalization purposes (Taipale et al. 2000) were used. […] Therefore, p9E6 was identified as an agonist. SHH activation is required for the first steps of oligodendrocyte differentiation, while a subsequent decrease in Hedgehog activity is needed for complete differentiation and myelin production (Bouslama-Oueghlani et al. 2012) and re-myelination (Samanta et al. 2015).

SMILES | Survival (%) ± SEM Mut MEFs ([1]; 10 μM) | Survival (%) ± SEM Mut MEFs ([1]; 20 μM) | Survival (%) ± SEM Mut MEFs ([1]; 30 μM) | cell survival following Tun-induced cell death [2] | other results
Clc1cccc(OCCCCCN2CCOCC2)c1 [Hit H8-7, 4-[5-(3-chlorophenoxy)pentyl]morpholine] | 98 ± 5.1% | 91 ± 4.7% | 88 ± 9.7% | most potent effect | mitochondrial health, damaged/intact organelle ratio (JC1) [3]: at the top of the list
Cc1ccc(OCCCCN2CCOCC2)cc1C [Hit H8-5, 4-[4-(3,4-dimethylphenoxy)butyl]morpholine] | 92 ± 1.7% | 100 ± 4.4% | 98 ± 13.8% | most potent effect | –
O=C(Cc1ccccc1)N1CCN(c2ccccc2F)CC1 [Hit H9, 1-(2-fluorophenyl)-4-(phenylacetyl)piperazine] | – | – | – | – | Firefly/Renilla luciferase expression (Hedgehog activation) ([4]; absence of SAG, 24 hours (FIG. 11A)): not able to activate the pathway; SAG-induced HH activity (Firefly/Renilla luciferase) ([4]; presence of SAG at 50 nM, 24 hours (FIG. 11B)): inhibited the SAG-induced HH activity
COc1cccc(OCCCCCN2CCOCC2)c1 [Hit H8-6, 4-[5-(3-methoxyphenoxy)pentyl]morpholine] | 97 ± 5.1% | 92 ± 1.1% | 93 ± 5.2% | most potent effect | –
CNC1CCC(N(Cc2cccc(-c3ccncc3)c2)C(=O)c2sc3ccccc3c2Cl)CC1 (stereo not drawn) [SAG, reference compound] | – | – | – | – | Survival (%) ± SEM Mut MEFs ([1]; 0.01 μM): 98 ± 2.1%; Survival (%) ± SEM Mut MEFs ([1]; 0.05 μM): 92 ± 3.2%; Survival (%) ± SEM Mut MEFs ([1]; 0.1 μM): 95 ± 2.1%; Survival (%) ± SEM Mut MEFs ([1]; 1 μM): 68 ± 2.7%
CN1CCN(CCCCCOc2ccccc2F)CC1 [Hit H8-8, 1-[5-(2-fluorophenoxy)pentyl]-4-methylpiperazine] | 101 ± 5.6% | 99 ± 11% | 90 ± 3.5% | – | –
COc1ccc(OC)c(N=Nc2nc3ccccc3n2C)c1 [Hit H16, 2-[(2,5-dimethoxyphenyl)diazenyl]-1-methyl-1H-benzimidazole] | – | – | – | – | cell viability / toxicity (crystal violet) ([1]; Mut MEFs, 10 μM, 24 hours (FIG. 14B)): significant decrease in cell viability
Cc1ccc(OCCCCCN2CCOCC2)cc1C [Hit H8-2, 4-[5-(3,4-dimethylphenoxy)pentyl]morpholine] | 92 ± 4.2% | 94 ± 8.8% | 95 ± 13.1% | most potent effect | –
